“And” between values parts separate entries of the source, which are not always exact repeats. Equal entries are not always repeated. “Also recorded” adds a separate entry of the source. Where two headings read alike, the source gives them in different places.
Columns and labels:
HCN4 C-Linker-CNBD [1] = target: T1, HCN4 C-Linker-CNBD (Homo sapiens, UniProt Q9Y3Q4); experiment: Competitive binding assay, displacement of 8-Fluo-cAMP, flow cytometry
T1 construct: the passenger domain human HCN4 C-Linker-CNBD; CtxB signal peptide (N, cleaved yes); His-Tag (N); made in house; host or cells: E. coli BL21 (OmpT-deficient)
T1 sequence (Q9Y3Q4 521-723 limits assumed): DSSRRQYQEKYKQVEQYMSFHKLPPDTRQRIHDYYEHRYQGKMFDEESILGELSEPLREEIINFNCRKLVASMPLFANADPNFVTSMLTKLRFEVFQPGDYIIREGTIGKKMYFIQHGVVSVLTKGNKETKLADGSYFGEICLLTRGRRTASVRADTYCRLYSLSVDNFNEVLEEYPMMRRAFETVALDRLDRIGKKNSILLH

[2] = target: purified HCN4 C-Linker-CNBD; settings: cited from earlier work
[3] = target: purified HCN4 MBP-C-Linker-CNBD fusion protein; settings: FP, cited from earlier work
HCN4 C-Linker-CNBD [4] = target: T1, HCN4 C-Linker-CNBD; experiment: Flow cytometry-based ligand-binding assay, 8-Fluo-cAMP on E. coli surface-displayed protein
[5] = target: maltose-binding protein (MBP) (Escherichia coli, UniProt P0AEX9); settings: up to 4 µM 8-Fluo-cAMP
[6] = target: purified HCN4 C-Linker-CNBD; settings: SPR; cited from earlier work
[7] = target: purified HCN4 C-Linker-CNBD; settings: ITC; cited from earlier work
[8] = target: HCN4 MBP-C-Linker-CNBD fusion protein; set-up: method as in PMID 24605759; settings: ITC; cited from earlier work
[9] = 50 nM 8-Fluo-cAMP, 100 µM competitor
[10] = ref 47, read-out: binding affinity (Kd)

COc1cc2c(cc1OC)CC(=O)N(CCCN(C)C[C@H]1Cc3cc(OC)c(OC)cc31)CC2 [ivabradine, Ivabradine]
effect on 8-Fluo-cAMP binding to the CNBD (mFI) (HCN4 C-Linker-CNBD [1]; [9]): no impact on ligand binding; also recorded: no influence

Nc1ncnc2c1nc(SCCNC(=S)Nc1ccc(-c3c4ccc(=O)cc-4oc4cc(O)ccc34)c(C(=O)O)c1)n2[C@@H]1O[C@@H]2COP(=O)(O)O[C@H]2[C@H]1O [8-Fluo-cAMP, 8-(2-[Fluoresceinyl]aminoethylthio)adenosine-3′,5′-cyclic monophosphate]
Kd ([2]; ref 9, read-out: binding affinity (Kd)): 280 nM | Kd [2, 10]: 167 nM | Kd ([3]; ref 35, read-out: binding affinity (Kd)): 189 nM | Kd [3, 10]: 111 nM | concentration at which saturation of binding is attained (HCN4 C-Linker-CNBD [4]; mFI of cells displaying HCN4 C-Linker-CNBD): around 500 nM | Kd (HCN4 C-Linker-CNBD [4]; surface-displayed HCN4 C-Linker-CNBD on E. coli, 1 nM-4 µM ligand, 30 min, 30 °C, read-out: dissociation constant (Kd)): 173 ± 46 nM | unspecific binding to surface-displayed MBP (mFI) [5]: only a marginal increase in mFI; also recorded: no unspecific binding

Nc1ncnc2c1ncn2C1OC2COP(=O)(O)OC2C1O (stereo not drawn) [cAMP, Adenosine-3′,5′-cyclic monophosphate]
effect on 8-Fluo-cAMP binding to the CNBD (mFI) (HCN4 C-Linker-CNBD [1]): decreased mFI | IC50 (HCN4 C-Linker-CNBD [1]; IC50 for 8-Fluo-cAMP binding): 13000 nM and 16000 nM and 23000 nM and 27000 nM | Ki (HCN4 C-Linker-CNBD [1]; Ki determined graphically): 11700 nM | Ki (HCN4 C-Linker-CNBD [1]; calculated Ki): 8500 ± 2000 nM | Kd [6]: 1500 nM | Kd [7]: 800 nM

Nc1ncnc2c1ccn2[C@@H]1O[C@@H]2COP(=O)(O)O[C@H]2[C@H]1O [7-CH-cAMP, 7-Deazaadenosine-3,5′-cyclic monophosphate]
IC50 (HCN4 C-Linker-CNBD [1]; 50 nM 8-Fluo-cAMP, read-out: IC50 for 8-Fluo-cAMP binding): 230 ± 41 nM | Ki (HCN4 C-Linker-CNBD [1]; 50 nM 8-Fluo-cAMP, read-out: inhibitory constant (Ki), calculated): 159 ± 29 nM | Kd [8]: 30 nM

NCC1(CC(=O)O)CCCCC1 [gabapentin, Gabapentin]
effect on 8-Fluo-cAMP binding to the CNBD (mFI) (HCN4 C-Linker-CNBD [1]; [9]): no influence; also recorded: no impact

Source: paper PMC10224427, “A Novel Flow Cytometry-Based Assay for the Identification of HCN4 CNBD Ligands” (Pharmaceuticals, 2023)
